Measurements as given in ChEMBL document CHEMBL4000229, “Structure-activity relationships of diverse xanthones against multidrug resistant human tumor cells” (Bioorg Med Chem Lett, 2017).

Assays:
Type in all cases: functional, cell-based
SMMC-7721 = assay: Cytotoxicity against Taxol-resistant human SMMC7721 cells measured after 48 hrs by MTT assay; conditions: SMMC-7721, 48 h
NCI/ADR-RES = assay: Cytotoxicity against human MCF7/ADR cells measured after 48 hrs by MTT assay
A549 = assay: Cytotoxicity against Taxol-resistant human A549 cells measured after 48 hrs by MTT assay; conditions: A549, 48 h

SMILES | IC50 (SMMC-7721) [µM] | IC50 (NCI/ADR-RES) [µM] | IC50 (A549) [µM]
COc1c(O)cc2oc3ccc(O)cc3c(=O)c2c1O | 48.9 | > 200 | 167
COc1cc(O)c2c(=O)c3cc(O)ccc3oc2c1 | 87.4 | 31.8 | 104
O=c1c2cc(O)ccc2oc2cc(O)cc(O)c12 | 38.5 | 193 | 146
O=c1c2cc(O)ccc2oc2cccc(O)c12 | 60.4 | > 200 | > 200
COc1cc(OC)c2c(=O)c3c(O)cccc3oc2c1OC | 50.9 | 59.1 | 34.6
COc1cc2c(=O)c3c(O)c(OC)c(O)cc3oc2cc1O | 102 | > 200 | > 200
COc1c(O)cc2oc3cccc(O)c3c(=O)c2c1O | 43.8 | > 200 | > 200
COc1c(O)cc(OC)c2c(=O)c3c(O)cccc3oc12 | 14.7 | 30.4 | 25.6
COc1ccc2oc3ccc(O)cc3c(=O)c2c1OC | 81.8 | 53.5 | 178
COc1c(O)ccc2oc3ccc(O)cc3c(=O)c12 | 56.3 | 109 | 37.1
COc1cc(O)c2c(=O)c3cc(O)ccc3oc2c1OC | 63 | 57.3 | 62.3
COc1ccc2oc3ccc(O)c(OC)c3c(=O)c2c1 | 83.7 | 102 | 35.2
COc1ccc(O)c2c(=O)c3cc(O)ccc3oc12 | 15.1 | 185 | 38.9
